PubChem BioAssay (NCI)
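Method: 48-hour compound exposure of cells in 96-well plates, five concentrations, linear interpolation of endpoints. GI50 is the concentration that inhibits growth by half. At the TGI there is no net growth.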

Key:
Assay in all cases: growth of human tumour cells (NCI), 48 h
NCI-H226 lung = system: NCI-H226 lung
SN12C renal = system: SN12C renal
RPMI-8226 leukemia = system: RPMI-8226 leukemia
SK-OV-3 ovarian = system: SK-OV-3 ovarian
ACHN renal = system: ACHN renal
PC-3 prostate = system: PC-3 prostate
786-0 renal = system: 786-0 renal
COLO 205 colon = system: COLO 205 colon
NCI-H522 lung = system: NCI-H522 lung
HT29 colon = system: HT29 colon
T-47D breast = system: T-47D breast
MOLT-4 leukemia = system: MOLT-4 leukemia
EKVX NSCLC = system: EKVX NSCLC
SK-MEL-28 melanoma = system: SK-MEL-28 melanoma
SF-539 CNS = system: SF-539 CNS
MDA-MB-435 = system: MDA-MB-435
HOP-62 NSCLC = system: HOP-62 NSCLC
K-562 leukemia = system: K-562 leukemia
MCF7 breast = system: MCF7 breast
U251 CNS = system: U251 CNS
RXF 393 renal = system: RXF 393 renal
OVCAR-3 ovarian = system: OVCAR-3 ovarian
SF-295 CNS = system: SF-295 CNS
OVCAR-4 ovarian = system: OVCAR-4 ovarian
DU-145 prostate = system: DU-145 prostate
NCI-H460 lung = system: NCI-H460 lung
SF-268 CNS = system: SF-268 CNS
UACC-62 melanoma = system: UACC-62 melanoma
CCRF-CEM leukemia = system: CCRF-CEM leukemia
LOX IMVI melanoma = system: LOX IMVI melanoma
MALME-3M melanoma = system: MALME-3M melanoma
HL-60(TB) leukemia = system: HL-60(TB) leukemia
IGROV1 ovarian = system: IGROV1 ovarian
A549 NSCLC = system: A549 NSCLC
HCT-116 colon = system: HCT-116 colon
SNB-75 CNS = system: SNB-75 CNS
KM12 colon = system: KM12 colon
HOP-92 NSCLC = system: HOP-92 NSCLC
OVCAR-5 ovarian = system: OVCAR-5 ovarian
OVCAR-8 ovarian = system: OVCAR-8 ovarian
SK-MEL-2 melanoma = system: SK-MEL-2 melanoma
HCT-15 colon = system: HCT-15 colon
UO-31 renal = system: UO-31 renal
CAKI-1 renal = system: CAKI-1 renal
M14 melanoma = system: M14 melanoma
NCI/ADR-RES ovarian = system: NCI/ADR-RES ovarian
MDA-MB-231 breast = system: MDA-MB-231 breast
HS 578T breast = system: HS 578T breast
HCC-2998 colon = system: HCC-2998 colon
SW-620 colon = system: SW-620 colon
TK-10 renal = system: TK-10 renal
UACC-257 melanoma = system: UACC-257 melanoma
SK-MEL-5 melanoma = system: SK-MEL-5 melanoma
A498 renal = system: A498 renal
NCI-H23 lung = system: NCI-H23 lung
SNB-19 CNS = system: SNB-19 CNS
BT-549 breast = system: BT-549 breast

CCOC(=O)CCc1c(C(=O)OCC)[nH]c(/C=C2\NC(=O)C(C)=C2CC)c1C
TGI (NCI-H226 lung): > 100 µM | TGI (SN12C renal): > 100 µM | TGI (RPMI-8226 leukemia): > 100 µM | TGI (SK-OV-3 ovarian): 48.3 µM | TGI (ACHN renal): 41.2 µM | TGI (PC-3 prostate): 63.3 µM | TGI (786-0 renal): 27.5 µM | TGI (COLO 205 colon): > 100 µM | TGI (NCI-H522 lung): 30.7 µM | TGI (HT29 colon): > 100 µM | TGI (T-47D breast): 26 µM | TGI (MOLT-4 leukemia): > 100 µM | TGI (EKVX NSCLC): 50.3 µM | TGI (SK-MEL-28 melanoma): > 100 µM | TGI (SF-539 CNS): 69.6 µM | TGI (MDA-MB-435): > 100 µM | TGI (HOP-62 NSCLC): 27.6 µM | TGI (K-562 leukemia): > 100 µM | TGI (MCF7 breast): > 100 µM | TGI (U251 CNS): 33.9 µM | TGI (RXF 393 renal): 49 µM | TGI (OVCAR-3 ovarian): 49.6 µM | TGI (SF-295 CNS): 41.3 µM | TGI (OVCAR-4 ovarian): 59.4 µM | TGI (DU-145 prostate): 55.6 µM | TGI (NCI-H460 lung): > 100 µM | TGI (SF-268 CNS): 92.1 µM | TGI (UACC-62 melanoma): 44.9 µM | TGI (CCRF-CEM leukemia): > 100 µM | TGI (LOX IMVI melanoma): > 100 µM | TGI (MALME-3M melanoma): 41.1 µM | TGI (HL-60(TB) leukemia): > 100 µM | TGI (IGROV1 ovarian): 23.7 µM | TGI (A549 NSCLC): > 100 µM | TGI (HCT-116 colon): > 100 µM | TGI (SNB-75 CNS): 27.8 µM | TGI (KM12 colon): > 100 µM | TGI (HOP-92 NSCLC): 45.1 µM | TGI (OVCAR-5 ovarian): 86.3 µM | TGI (OVCAR-8 ovarian): 18.9 µM | TGI (SK-MEL-2 melanoma): 42.5 µM | TGI (HCT-15 colon): > 100 µM | TGI (UO-31 renal): > 100 µM | TGI (CAKI-1 renal): 78.7 µM | TGI (M14 melanoma): > 100 µM | TGI (NCI/ADR-RES ovarian): 32.4 µM | TGI (MDA-MB-231 breast): 52.6 µM

COc1cc2c(c(OC)c1OC)-c1ccc(NNC(=S)N(Cc3cccc(C[N+](Cc4cccc(CNC56CC7CC(CC(C7)C5)C6)c4)(Cc4cccc(CNC56CC7CC(CC(C7)C5)C6)c4)Cc4cccc(CN(C(=S)NNc5ccc6c(cc5=O)[C@@H](NC(C)=O)CCc5cc(OC)c(OC)c(OC)c5-6)C56CC7CC(CC(C7)C5)C6)c4)c3)C34CC5CC(CC(C5)C3)C4)c(=O)cc1[C@@H](NC(C)=O)CC2 (some centres not stated)
GI50 (NCI-H226 lung): 1.96 µM | TGI (NCI-H226 lung): 9.97 µM | GI50 (SN12C renal): 2.23 µM | TGI (SN12C renal): 6.9 µM | GI50 (RPMI-8226 leukemia): 0.757 µM | TGI (RPMI-8226 leukemia): 1.76 µM | GI50 (SK-OV-3 ovarian): 3 µM | TGI (SK-OV-3 ovarian): 7.51 µM | GI50 (ACHN renal): 3.68 µM | TGI (ACHN renal): 7.99 µM | GI50 (PC-3 prostate): 1.45 µM | TGI (PC-3 prostate): 5.64 µM | GI50 (786-0 renal): 1.3 µM | TGI (786-0 renal): 5.28 µM | GI50 (COLO 205 colon): 0.683 µM | TGI (COLO 205 colon): 1.52 µM | GI50 (NCI-H522 lung): 0.699 µM | TGI (NCI-H522 lung): 1.88 µM | GI50 (HT29 colon): 0.958 µM | TGI (HT29 colon): 2.81 µM | GI50 (HS 578T breast): 1.22 µM | TGI (HS 578T breast): 6.76 µM | GI50 (T-47D breast): 1.83 µM | TGI (T-47D breast): 9.4 µM | GI50 (MOLT-4 leukemia): 0.562 µM | TGI (MOLT-4 leukemia): 1.93 µM | GI50 (HCC-2998 colon): 0.635 µM | TGI (HCC-2998 colon): 1.47 µM | GI50 (EKVX NSCLC): 2.68 µM | TGI (EKVX NSCLC): 8.46 µM | GI50 (SK-MEL-28 melanoma): 1.02 µM | TGI (SK-MEL-28 melanoma): 4.07 µM | GI50 (SF-539 CNS): 1.14 µM | TGI (SF-539 CNS): 4.3 µM | GI50 (MDA-MB-435): 0.779 µM | TGI (MDA-MB-435): 3.5 µM | GI50 (SW-620 colon): 0.814 µM | TGI (SW-620 colon): 2.06 µM | GI50 (HOP-62 NSCLC): 2.14 µM | TGI (HOP-62 NSCLC): 7.43 µM | GI50 (TK-10 renal): 3.66 µM | TGI (TK-10 renal): 8.34 µM | GI50 (MCF7 breast): 0.862 µM | TGI (MCF7 breast): 3.44 µM | GI50 (UACC-257 melanoma): 4.51 µM | TGI (UACC-257 melanoma): 10.3 µM | GI50 (RXF 393 renal): 1.7 µM | TGI (RXF 393 renal): 6.65 µM | GI50 (SK-MEL-5 melanoma): 0.81 µM | TGI (SK-MEL-5 melanoma): 2.25 µM | GI50 (OVCAR-3 ovarian): 1.66 µM | TGI (OVCAR-3 ovarian): 6.53 µM | GI50 (SF-295 CNS): 1.53 µM | TGI (SF-295 CNS): 5.92 µM | GI50 (OVCAR-4 ovarian): 2.17 µM | TGI (OVCAR-4 ovarian): 8.94 µM | GI50 (DU-145 prostate): 2.46 µM | TGI (DU-145 prostate): 7.1 µM | GI50 (NCI-H460 lung): 1.22 µM | TGI (NCI-H460 lung): 3.79 µM | GI50 (SF-268 CNS): 1.37 µM | TGI (SF-268 CNS): 6.54 µM | GI50 (UACC-62 melanoma): 1.61 µM | TGI (UACC-62 melanoma): 6.38 µM | GI50 (CCRF-CEM leukemia): 0.904 µM | TGI (CCRF-CEM leukemia): 2.47 µM | GI50 (LOX IMVI melanoma): 0.873 µM | TGI (LOX IMVI melanoma): 2.86 µM | GI50 (MALME-3M melanoma): 0.83 µM | TGI (MALME-3M melanoma): 3.04 µM | GI50 (HL-60(TB) leukemia): 0.168 µM | TGI (HL-60(TB) leukemia): 1.03 µM | GI50 (IGROV1 ovarian): 1.45 µM | TGI (IGROV1 ovarian): 5.95 µM | GI50 (A549 NSCLC): 1.61 µM | TGI (A549 NSCLC): 6 µM | GI50 (HCT-116 colon): 0.896 µM | TGI (HCT-116 colon): 3.07 µM | GI50 (A498 renal): 1.07 µM | TGI (A498 renal): 3.28 µM | GI50 (NCI-H23 lung): 1.38 µM | TGI (NCI-H23 lung): 5.33 µM | GI50 (SNB-75 CNS): 1.4 µM | TGI (SNB-75 CNS): 6.68 µM | GI50 (KM12 colon): 1.08 µM | TGI (KM12 colon): 4.52 µM | GI50 (HOP-92 NSCLC): 0.897 µM | TGI (HOP-92 NSCLC): 4.08 µM | GI50 (OVCAR-5 ovarian): 1.17 µM | TGI (OVCAR-5 ovarian): 5.03 µM | GI50 (OVCAR-8 ovarian): 2.03 µM | TGI (OVCAR-8 ovarian): 7.49 µM | GI50 (SK-MEL-2 melanoma): 0.861 µM | TGI (SK-MEL-2 melanoma): 2.76 µM | GI50 (HCT-15 colon): 1.56 µM | TGI (HCT-15 colon): 5.96 µM | GI50 (UO-31 renal): 2.16 µM | TGI (UO-31 renal): 7.2 µM | GI50 (CAKI-1 renal): 3.2 µM | TGI (CAKI-1 renal): 7.37 µM | GI50 (M14 melanoma): 0.822 µM | TGI (M14 melanoma): 2.26 µM | GI50 (SNB-19 CNS): 1.65 µM | TGI (SNB-19 CNS): 6.2 µM | GI50 (NCI/ADR-RES ovarian): 5.43 µM | TGI (NCI/ADR-RES ovarian): 12.5 µM | GI50 (MDA-MB-231 breast): 0.994 µM | TGI (MDA-MB-231 breast): 2.99 µM | GI50 (BT-549 breast): 1.55 µM | TGI (BT-549 breast): 5.89 µM
